Source: ChEMBL document CHEMBL1201862, “PubChem BioAssay data set” (2004)
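Interpolation was linear, between the two tested concentrations surrounding the appropriate level; five concentrations were tested over 48 hours in 96-well plates. GI50: concentration for 50% inhibition of growth.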 The source made the active and inactive calls. Cut-off read from the data, not from the text of the source: active = GI50 up to about 1.1 µM and inactive = higher.

Experiments:
Experiment in all cases: inhibition of tumour cell growth, NCI panel, 48 h
HCT-116 = test system: HCT-116
SK-MEL-28 = test system: SK-MEL-28
ACHN = test system: ACHN
SR = test system: SR
NCI-H460 = test system: NCI-H460
OVCAR-5 = test system: OVCAR-5
NCI-H23 = test system: NCI-H23
SW-620 = test system: SW-620
HOP-92 = test system: HOP-92
CCRF-CEM = test system: CCRF-CEM
COLO 205 = test system: COLO 205
EKVX = test system: EKVX
MDA-N = test system: MDA-N
LOX IMVI = test system: LOX IMVI
U-251 = test system: U-251
UACC-62 = test system: UACC-62
HL-60 = test system: HL-60
HT-29 = test system: HT-29
OVCAR-4 = test system: OVCAR-4

Measured: GI50

O=C1OC(c2ccccc2)N(C(=O)c2ccccc2)C1Cc1ccc(OCc2ccccc2)cc1 (stereo unspecified)
inactive: HCT-116 > 100 µM | SK-MEL-28 > 100 µM | ACHN 6.82 µM | SR > 100 µM | NCI-H460 60 µM | OVCAR-5 > 100 µM | NCI-H23 36.7 µM | SW-620 > 100 µM | HOP-92 3.91 µM | CCRF-CEM > 100 µM | COLO 205 > 100 µM | EKVX 9.57 µM | MDA-N > 100 µM | LOX IMVI 8.11 µM | U-251 > 100 µM | UACC-62 8.11 µM | HL-60 9.89 µM

O[C@@]1(C#Cc2ccc3c(c2)OCO3)CCC[C@H]1NCc1ccccc1
inactive: SK-MEL-28 17.6 µM | ACHN 37.2 µM | SR 23.2 µM | NCI-H460 24.7 µM | HT-29 22.9 µM | OVCAR-5 34.8 µM | NCI-H23 29.6 µM | SW-620 31.4 µM | HOP-92 13.7 µM | CCRF-CEM 33.8 µM | COLO 205 18.3 µM | EKVX 33.5 µM | MDA-N 16.9 µM | LOX IMVI 15.6 µM | OVCAR-4 38.6 µM | U-251 22.9 µM | UACC-62 16.9 µM | HL-60 18.4 µM

C/C=C(/CCC1NCCC2c3ccccc3NC12)[Si](C)(C)C (stereo unspecified)
inactive: HCT-116 3.52 µM | SK-MEL-28 5.2 µM | ACHN 14.2 µM | SR 2.9 µM | NCI-H460 3.3 µM | HT-29 2.83 µM | OVCAR-5 7.28 µM | NCI-H23 13.8 µM | SW-620 3.02 µM | HOP-92 5.58 µM | CCRF-CEM 3.6 µM | COLO 205 1.69 µM | EKVX 14.4 µM | LOX IMVI 7.31 µM | OVCAR-4 7.57 µM | U-251 12.8 µM | UACC-62 13.5 µM | HL-60 2.12 µM

CN(C)C(=O)c1ccc([N+](=O)[O-])cc1
inactive: HCT-116 > 100 µM | SK-MEL-28 > 100 µM | ACHN > 100 µM | SR > 100 µM | NCI-H460 > 100 µM | HT-29 > 100 µM | OVCAR-5 > 100 µM | NCI-H23 > 100 µM | SW-620 > 100 µM | HOP-92 > 100 µM | CCRF-CEM > 100 µM | COLO 205 > 100 µM | EKVX > 100 µM | LOX IMVI > 100 µM | OVCAR-4 > 100 µM | U-251 > 100 µM | UACC-62 > 100 µM | HL-60 > 100 µM
